As to `CC(C)NCC(O)COc1cccc2[nH]ccc12` (stereo not drawn), the melting point is 170 °C. With `O=Cc1ccc(N2CCCC2)cc1`, the melting point came out at 85 °C. Then `Clc1cc(Cl)c2c(c1)oc1c(Cl)cc(Cl)cc12`, with 177 °C; and `CC(=O)c1cccc(O)c1`, with 96 °C; and `Nc1c(Cl)cc([N+](=O)[O-])cc1Br`, with 175 °C. Consider `Cc1sc(-c2cccnc2)nc1-c1ccccc1`, for which the melting point came out at 80 °C.

Compound `Clc1ccnc(Cl)n1` returned a melting point of 60 °C. For `COc1ccc(CCN2CCC(Nc3nc4ccccc4n3Cc3ccc(F)cc3)CC2)cc1` the value was 149 °C; for `Clc1ccc(-c2c(Cl)cc(Cl)c(Cl)c2Cl)cc1Cl`, 107 °C; for `Cn1cnc2ncnc(N)c21`, 323 °C. Then `CCN(CCO)CCO`, with -50 °C. Then `FC(F)(F)c1ccc(=S)[nH]c1`, with 159 to 160 °C. `Clc1ccc(N=Nc2ccccc2)cc1` came in with a melting point of 88 °C.

`O=C(O)C(F)(F)C(F)(F)C(F)(F)C(F)(F)C(F)(F)C(F)F` gave a melting point of 34 °C. Consider `Sc1ccc2ccccc2c1`, for which the melting point was 81 °C. Then `COc1ccc2c(c1O)-c1c3c(cc4c1C(C2)N(C)CC4)OCO3` (stereo not drawn), with 200 °C; and `Cc1cc(C)c2cc(C)ccc2c1`, with 12 °C; and `O=C(O)c1cnccc1Cl`, with 200 to 215 °C. In turn, `CSc1nc2ccccc2s1` had a melting point of 44 °C. For `Nc1nc(-c2ccc(F)c(F)c2)cs1` the value was 116 to 117 °C; for `OCc1ccccn1`, 5 °C; for `CCCC(=O)Oc1c[nH]c2cc(Cl)c(Br)cc12`, 96 to 100 °C. For `COC(=O)c1ccc(CCl)o1`, the melting point lay in the range of 32 to 36 °C.

In turn, `COC(=O)CC(=O)CCl` had a melting point of 14 to 16 °C. `C/C(=N\c1cc(C)ccc1O)c1c(O)c2ccccc2n(-c2ccccc2)c1=O`: the melting point is 251 to 252 °C. `Sc1nnc(SCCSc2nnc(S)s2)s1`: the melting point lay within 202 to 204 °C. `COC(=O)c1ccc(Cl)cc1N` registered a melting point of 67 °C. In the case of `Clc1ccc(-c2csc(N3N=C(c4cnccn4)CC3c3ccc4c(c3)OCO4)n2)cc1` (stereo not drawn), the melting point amounted to 187 °C.

The compound `COc1ccc(C(=O)Cn2cc([N+](=O)[O-])nc2C)cc1` came in with a melting point of 250 to 252 °C. As to `O=c1cc(-c2ccc(O)cc2)oc2cc(O)cc(O)c12`, the melting point came to 348 °C. For the compound `CC(=O)CCc1oc2ccc(Cl)cc2c1-c1ccc(C)o1`, the melting point is 75 °C. As for `ClCc1nc(-c2ccc(Cl)cc2)no1`, the melting point lay within 60 to 61 °C. Then `O=C(NCc1ccccn1)c1cc([N+](=O)[O-])cc([N+](=O)[O-])c1`, with 120 °C; and `CC(C)=C1OC(=O)N(c2cc(OC3CCCC3)c(Cl)cc2F)C1=O`, with 104 °C.

Take `Cc1ccc(OC(C)(C)C(=O)O)c2c1CCC2`: the melting point was 89 to 90 °C. For the compound `CC(C)(C#N)C#N`, the melting point is 31.5 °C. Take `CC(=O)Oc1c(-c2ccccc2)[nH]c2cc(N)c(/C=C/c3ccccc3)cc12`: the melting point was 266 °C.

As for `N#Cc1ccccc1N=C=S`, the melting point is 119 to 120 °C. For `CN(C)CCc1c[nH]c2ccccc12` the value was 46 °C. For `CCOC(=O)CC(=O)C(C)C` the value was -9 °C; for `BrCc1ccc(-c2ccccc2)cc1`, 86 to 87 °C; for `CC(=O)OC(C(=O)Cl)c1ccccc1` (stereo not drawn), 36 °C. `c1ccc(P(C2CCCCC2)C2CCCCC2)cc1` showed a melting point of 59.5 °C. Turning to `O=C(O)COc1c(F)c(F)c(F)c(F)c1F`, the melting point came to 109 °C. For `CCCCCCCCCC(O)CC` (stereo not drawn) the value was 25 °C; for `Cc1cc(C(N)=O)no1`, 171 to 173 °C. In the case of `Cc1cc(C(=O)O)n(C(C)(C)C)n1`, the melting point lay in the range of 149 to 153 °C. As to `CCOC(=O)C1=C(C)NC(=O)NC1c1ccco1` (stereo not drawn), the melting point was determined as 206 °C. Consider `C=C1N(C(C)=O)c2ccccc2C1(C)C(=O)OC` (stereo not drawn), for which the melting point fell in the range of 59 to 61 °C. `CC(C)CCCCCCCOC(=O)CCCCC(=O)OCCCCCCCC(C)C` displayed a melting point of 27.4 °C. `Cc1cccc(OCC(O)CNC(C)C)c1` (stereo not drawn): the melting point was determined as 76 °C. The compound `C=C(C)C(C)(C)CC` registered a melting point of -69 °C. For `Sc1nnc(S)s1` the value was 161 to 165 °C; for `C=COCCCC`, -92 °C. Take `O=S(=O)(Cl)c1csc2ccccc12`: the melting point fell in the range of 86 to 88 °C.

For `NC(=S)c1ccc(F)cc1`, the melting point came to 150 °C. For `O=C(O)c1ccccc1N/N=C1/C(=O)N(c2ccccc2)N=C1C(F)(F)F` the value was 139 °C; for `COc1cc(CCC(C)=NO)ccc1O`, 82 to 84 °C; for `Nc1ccc(O)cc1C(=O)O`, 233 to 234 °C. Consider `CC(=O)Oc1ccccc1/C=C/c1ccccc1`, for which the melting point is 56 °C.

`CCOC(=O)c1cc2cc3cc(C(=O)OCC)c(C)nc3cc2nc1C` displayed a melting point of 167 °C. With `O=Cc1cc(-c2ccco2)on1`, the melting point fell in the range of 60 to 61 °C.

Take `FC(F)(F)c1ccc2[nH]c(S)nc2c1`: the melting point is 277 to 279 °C.

Compound `Cc1cc(O)c2c(c1)C(=O)c1cccc(O)c1C2=O` showed a melting point of 196 °C. The compound `Nc1ccccc1-c1cccnc1` displayed a melting point of 72 °C. `O=C(O)c1ccc(Br)c(C(=O)O)c1`: the melting point is 297 to 299 °C. As for `O=C(Nc1ccc(-c2ccc(NC(=O)c3ccccc3)cc2NC(=O)c2ccccc2)c(NC(=O)c2ccccc2)c1)c1ccccc1`, the melting point is 279 °C.

In turn, `COc1c(Br)cc(C(=O)O)cc1Br` showed a melting point of 224 to 226 °C. For `COC(=O)N/C=C/c1ccccc1[N+](=O)[O-]`, the melting point was in the range of 146 to 148 °C. The compound `O=C1NC2NC(=O)NC2N1` (stereo not drawn) yielded a melting point of 300 °C.

`NCc1cccc2c(Br)cccc12` came in with a melting point of 138 to 139 °C. Then `O=C1OC(=O)C23Cc4ccccc4CC12Cc1cc2c(cc1C3)CC2` (stereo not drawn), with 248 to 252 °C; and `CC1C=CC(C2CC(=O)OC2=O)C12CC2` (stereo not drawn), with 98 °C.

Take `O=C(O)C=Cc1ccc(Br)cc1F`: the melting point was in the range of 219 to 223 °C. For `CC1C=C(CO)N=N1` (stereo not drawn) the value was 79 °C. For `CC1C(c2ccc(Cl)cc2)SC(=O)N1C(=O)NC1CCCCC1` (stereo not drawn), the melting point is 108 °C. With `Cn1nc(C=O)cc1-c1ccco1`, the melting point is 62 to 64 °C. With `O=CC(O)CO` (stereo not drawn), the melting point turned out to be 145 °C. For `CC(=O)Oc1ccc(Cl)cc1` the value was 9 °C; for `O=Cc1sc(-c2ccccc2)nc1-c1ccccc1`, 121 to 123 °C; for `COC(=O)c1ccc(C(=O)OC)c(F)c1`, 82 °C. Then `O=C(O)Cc1ccc2c(c1)OCO2`, with 128 to 132 °C; and `C(=Nc1ccccc1Nc1ccccc1N=Cc1ccccc1)c1ccccc1`, with 102 to 104 °C; and `COCc1cc(=O)oc2cc(N)ccc12`, with 184 °C. With `Cc1ccc(C=CC(=O)c2cccc([N+](=O)[O-])c2)cc1`, the melting point was in the range of 143 to 146 °C.

Compound `Cc1nc2ccc(Br)cn2c(=O)c1C(=O)c1ccccc1` gave a melting point of 245 to 247 °C. `COC(=O)C1CCCc2c1[nH]c1cc(OC)ccc21` (stereo not drawn) returned a melting point of 92 °C. In turn, `Oc1noc2cc(Cl)ccc12` gave a melting point of 215 to 217 °C.

As for `CC(C)(C)c1cc(O)cc(C(C)(C)C)c1`, the melting point is 88 °C. Regarding `CC(=O)C(N=Nc1ccccc1)C(C)=O`, the melting point turned out to be 87 °C.

With `O=[N+]([O-])c1ccc2c(c1)CCN2`, the melting point was found to be 93 °C. Regarding `CC1COc2c(C3(N)CC3)c(F)cc3c(=O)c(C(=O)O)cn1c23` (stereo not drawn), the melting point was found to be 269 °C.

The compound `OCc1ccc2[nH]cnc2c1` returned a melting point of 129 to 131 °C. In turn, `O=C(c1ccccc1)c1nn(-c2ccccc2)c(-c2ccc([N+](=O)[O-])cc2)c1S(=O)(=O)c1ccccc1` returned a melting point of 116 °C. `Cc1cc(C(=O)O)c2ccccc2n1` came in with a melting point of 240 to 242 °C. As for `ON=Cc1c[nH]cn1`, the melting point worked out at 182 °C.

`Oc1ccccc1CCc1ccccc1` had a melting point of 85 °C.

Regarding `Nc1c(Br)cc(Br)c(Cl)c1C(=O)O`, the melting point was in the range of 212 to 215 °C. For `NC(=S)c1ccc(C2OCCO2)cc1` the value was 150 to 154 °C; for `O=C(O)C1CC(=O)N(Cc2cccs2)C1` (stereo not drawn), 144 to 146 °C. Regarding `ON=C(Cc1ccccc1)C(Cc1ccccc1)=NO`, the melting point came out at 193 °C. For `CCCCCCCC(N)=O` the value was 108 °C; for `C=Nc1cnn(-c2ncnc3c2cnn3C)c1C=COCC`, 155 °C. `O=C1c2ccccc2-c2ccc3c4ccc5c6c(ccc(c7ccc1c2c73)c64)C(=O)c1ccccc1-5`: the melting point turned out to be 492 °C. `Cc1nn(Cc2cccc(C(=O)O)c2)c(C)c1Br` yielded a melting point of 224 to 226 °C. In turn, `Clc1ccc(Oc2ccc(Cl)cc2)cc1` showed a melting point of 30 °C. Then `CNC(=O)Oc1cc(C)c(SC)c(C)c1`, with 120 °C. For the compound `CCCSP(=S)(OCC)Oc1ccc(SC)cc1` (stereo not drawn), the melting point was -15 °C. On to `Cc1ccc(I)cc1N`, for which the melting point was 47.5 °C. In turn, `CCCC(=O)c1ccc(Cl)cc1` returned a melting point of 36 to 39 °C. Compound `Cc1cc(CO)nn1-c1ccccn1` registered a melting point of 44 to 46 °C. Turning to `COc1ccc(Nc2[nH]c(=S)nnc2-c2ccccc2)cc1`, the melting point was 233 °C. `Cc1cccc(C)c1N(Cn1cccn1)C(=O)CCl` had a melting point of 85 °C.

Source of the values: a melting point compilation (Tetko et al.).
